Consider 1 compound from patent US20090012156A1, “Composition comprising polyphenol” (Conopco, Inc. d/b/a Unilever, priority 2007, published 2009).

Usually EC50 stands for the concentration needed to bring the measured effect to its halfway point.

The assay relates to 2nd order mesenteric artery side branches of Spontaneously Hypertensive Rats (SHR). Kind of assay: Reactivity of isolated arteries: dilator effect during contraction induced by 40 mmol/L K+. Also on record: species or system rat. The protocol: Segments of 2nd order mesenteric artery side branches were isolated from 14 weeks old male Spontaneously Hypertensive Rats (SHR). Two stainless-steel wires (diameter 40 μm) were inserted in the lumen of the arterial segments, which were then mounted in organ chambers between an isometric force transducer and a displacement device (Danish Myotechnology by J. P. Trading, Denmark). The organ chambers were filled with Krebs-Ringer bicarbonate solution which was maintained at 37° C. and continuously aerated with 95% O2 and 5% CO2. Before the actual experiments started, arterial segments were stretched to their individual optimal lumen diameter for mechanical performance, i.e. the diameter at which maximal contractile responses to noradrenaline (10 μmol/L) were obtained. In each experiment four second order mesenteric resistance arterial segments from one animal were mounted in individual organ chambers and studied in parallel. […]
For the analysis of the acute effects of the mixtures on K+-induced contraction, increasing concentrations of the mixtures (0.1-100 umol/L) were administered on top of the stable contractions and were left in contact with the arterial segments for 5-7 min to make sure that either no effect or a stable effect was reached. […] In this way, the effects of different exposure times to the mixtures (7, 30 and 90 min) on K+-induced contraction, could be evaluated. […]
Active wall tension (AWT) was calculated by subtracting the resting wall tension.
All contractile responses (AWT in the presence of stimuli, solvent and mixes of ingredients) were next expressed as a percentage of the contractile response (AWT) to 10 uM noradrenaline at the end of the normalisation period, i.e. before exposure of the arterial segments to solvent or mixes of ingredients.
Effects of increasing concentrations of the solvent and of the mixes (0.1 to 100 umol/L) during contractile responses to 40 mmol/L K+, were calculated as % change of the level of pre-contraction. […]

Consider `COc1cc(-c2oc3cc(O)cc(O)c3c(=O)c2O)ccc1O` [isorhamnetin, 3′methoxy-3,4,5,7-tetrahydroxyflavone], for which the 50% effective concentration (EC50) (Rattus norvegicus, isolated SHR mesenteric resistance arteries pre-contracted with 40 mmol/L K+, effect worked out by comparing mixtures (Plackett-Burman design), corrected for solvent, read-out: EC50 of dilation of the arteries) turned out to be 3.1 µM. Further, the maximum dilatation (at 100 micromolar of isorhamnetin, isolated SHR mesenteric arteries pre-contracted with 40 mmol/L K+) was 94%. In addition, for the setting “at a low concentration, isolated SHR mesenteric arteries, K+-induced contraction”, the “influence on the dilation of the arteries” value is given as “significant influence on the dilation of the arteries”.
